Values of other authors as cited in patent US10149821B2, “Orosoluble and/or effervescent compositions containing at least a salt of S-adenosyl methionine (SAMe)” (priority 2009, dated 2018).

Legend:
[1] = temperatures above 0° C.
[2] = not given; remark: listed apart in the source
[3] = oral intake, SAMe radiolabeled on the carbon of the methyl group

C[S+](CC[C@H](N)C(=O)O)C[C@H]1O[C@@H](n2cnc3c(N)ncnc32)[C@H](O)[C@@H]1O (some centres unmarked) [SAMe, S-adenosyl methionine]
half-life in the liver: about 5 minutes
stability [1]: very unstable
plasma levels of the non-modified molecule, % of the administered dose ([2]; oral intake, swallowable gastro-protected tablets): 5-10%
plasma bioavailability, % of the administered dose ([2]; parenteral administration (endovenous or intramuscular)): 90-100%
hepatic metabolism, % of the administered radioactivity [3]: about 60%
